Test results: US12457954B2, “Sorghum plants having a mutant polynucleotide encoding the large subunit of mutated acetohydroxyacid synthase protein and increased resistance to herbicides” (Advanta Holdings BV, priority 2012, dated 2025)

Legend:
Type in all cases: in vivo, Sorghum bicolor
[1] = tested on: endogamic Sorghum line 80237; assay: Field spraying with imidazolinone herbicides, dry matter of aerial tissues, wild-type line; settings: 10 days after spraying, mean of 3 experiments
Protocol: (§1) Subsequently, the effect to herbicide spraying on mutant imidazolinone-resistant plants ADV-IMI-R (original mutation) was compared to the response of endogamic Sorghum line 80237 (Advanta proprietary elite line). To that end, plants were treated on the field with three herbicides belonging to the imidazolinone family: imazethapyr, imazapir, and imazapic. Four different rates were assayed: 1×, 2×, 3×, and 4× for each of the herbicides.
(§2) Ten days after spraying, all plants were assayed for dry matter (DM) in aerial tissues.
(§3) The response of the ADV-IMI-R mutant of the invention was compared to that of endogamic line 80237. […] The disclosed values are the average of three experiments.
(§4) Sorghum line 80237 (Advanta's proprietary elite line) and imidazolinone-resistant ADV-IMI-R mutant of the present invention (original mutation) were sprayed on the field with three herbicides from the group of imidazolinones: imazethapyr, imazapyr, and imazapic. Four different rates were assayed for each of the herbicides: 1×, 2×, 3×, and 4× (being 1× the recommended application rate) (see Table 1 above):
(§5) Field experiments were carried out in Venado Tuerto, and planting took place on Dec. 1, 2010. The herbicide was sprayed 20 days after emergence (stage V6). All treatments were compared to their respective untreated controls. The experimental design consisted of plots divided into 3 replicates (main plot: treatment with herbicide; sub-plots: line).
(§6) Ten days after spraying, all plants were assayed for dry matter (DM) in aerial tissues. Herbicide response was assessed as a DM percentage in aerial tissue of the respective untreated control.
(§7) Thus, the line sensitive to herbicides i for each rate j was expressed as:
(§8) [formula] • DMij % Control is the mean value of 3 experiments for each treatment from each line.

[2] = tested on: ADV-IMI-R mutant Sorghum line; assay: Field spraying with imidazolinone herbicides, dry matter of aerial tissues, resistant mutant; settings: for DM % Control: ADV-IMI-R, 10 days after spraying, mean of 3 experiments; for Response of ADV-IMI-R mutant to herbicide: field spraying, even at a rate of 4×
Protocol: as §1, §2, §3, §4, §5, §6, §7, §8

[3] = tested on: ADV-IMI-R × 90523 F2 progeny; assay: Phenotypic rating of segregating F2 population after spraying with imazethapyr; settings: rate 3X
Protocol: Inheritance of resistance to imidazolinones, for example imazethapyr, was assessed in a segregating F2 Sorghum population generated by crossing an imazethapyr susceptible line with the ADV-IMI-R mutant. The F2 plants thus obtained were sprayed with imazethapyr (Pivot®, BASF) at a rate of 3×, 20 days in stage V6 after emergence and phenotypic symptoms were assessed 10 days after treatment.
The correlation between resistance phenotypes and the number of mutant alleles was analyzed using the SNP-SbAHAS marker. To that end, chlorosis and death phenotypes of individual plants from the F2 progeny (ADV-IMI-R×90523) were studied after spraying with imazethapyr. Concomitantly, the genotype of the SNP-SbAHAS marker was studied. The correlation between the molecular marker SNP-SbAHAS and resistance to imazethapyr (measured as a rating of phenotypes) was determined using the Chi-square Independence test.
A targeted crossing was carried out between Sorghum line 90523 (Advanta proprietary elite line, susceptible to imidazolinones) and the imidazolinone-resistant ADV-IMI-R mutant (VT09-9754-48-6-BK selection). The resulting F1 plants were auto-pollinated and F2 seeds were harvested. The F2 seeds were planted in the field in Venado Tuerto, in October 2010. The F2 plants (177 plants) were sprayed with imazethapyr (Pivot®, BASF) at a rate of 3× (where 1× is the rate recommended by the manufacturer for commercial use which is equivalent to 100 ml a.i./ha). Before spraying, leaf tissue from each of the 177 F2 plants from both ADV-IMI-R mutant (VT09-9754-48-6-BK selection) and wild-type line 90523 were collected to isolate genomic DNA, which was resuspended in water at a final concentration of 100 ng/μl for use in genotypic analysis.
Herbicide was sprayed 20 days after emergence (stage V6). The plants were assessed ten days after spraying, and the herbicidal effect was classified into three categories by visually assessed symptoms according to the following phenotypic scoring: • 1=no damage • 2=chlorotic • 3=death
Individual F2 progeny plants obtained by a ADV-IMI-R×90523 crossing were phenotypically classified (no damage, chlorosis and death) after spraying with imazethapyr (using the method of Example 4) and then genotypically classified using the molecular marker SNP-SbAHAS which is specific of the induced mutation in AHAS (using the method described in Example 5).

[4] = 10 days after treatment, 177 F2 plants

Compound	DM % Control ([1]; rate 1X)	DM % Control ([1]; rate 2X)	DM % Control ([1]; rate 3X)	DM % Control ([1]; rate 4X)	DM % Control ([2]; rate 1X)	DM % Control ([2]; rate 2X)	DM % Control ([2]; rate 3X)	DM % Control ([2]; rate 4X)	Response of ADV-IMI-R mutant to herbicide [2]	Amount of F2 progeny, phenotype Chlorotic (rating 2) [3, 4]	Amount of F2 progeny, phenotype Death (rating 3) [3, 4]	Amount of F2 progeny, phenotype No damage (rating 1) [3, 4]	Amount of F2 individuals, genotype A/G, phenotype Chlorotic ([3]; heterozygous)	Amount of F2 individuals, genotype A/G, phenotype No damage ([3]; heterozygous)	Amount of F2 individuals, genotype A/A, phenotype Chlorotic ([3]; homozygous AHAS mutant)	Amount of F2 individuals, genotype A/A, phenotype No damage ([3]; homozygous AHAS mutant)	Amount of F2 individuals, genotype G/G, phenotype Death ([3]; wild-type homozygous)
Cc1cnc(C2=NC(=O)C(C)(C(C)C)N2)c(C(=O)O)c1 (centres unmarked) [Imazapic]	22%	13%	15%	28%	161%	123%	244%	272%	resistant	–	–	–	–	–	–	–	–
CC(C)C1(C)N=C(c2ncccc2C(=O)O)NC1=O (centres unmarked) [Imazapyr]	14%	21%	14%	19%	139%	140%	235%	191%	resistant	–	–	–	–	–	–	–	–
CCc1cnc(C2=NC(C)(C(C)C)C(=O)N2)c(C(=O)O)c1 (centres unmarked) [Imazethapyr]	17%	12%	14%	23%	162%	175%	263%	273%	resistant	84	43	50	83	13	1	37	43
